Source: patent publication US20200239530A1, “COMPOUNDS AND METHODS OF MODULATING PROTEIN DEGRADATION” (Vividion Therapeutics, Inc., priority 2017, published 2020)
Read-outs that look alike come from different tables or passages of the source.

Experiments:
Assay in all cases: Cysteine liganding, probe competition
Assay type in all cases: binding
UniProt A0AVI4 = molecular target: T1, UniProt A0AVI4 (Homo sapiens, UniProt A0AVI4)
T1 construct: 200 μL of lysate containing 5 mg/ml proteome was treated with 2 μL of 100× compound stock; endogenous in cells
T1 sequence (A0AVI4 1-362): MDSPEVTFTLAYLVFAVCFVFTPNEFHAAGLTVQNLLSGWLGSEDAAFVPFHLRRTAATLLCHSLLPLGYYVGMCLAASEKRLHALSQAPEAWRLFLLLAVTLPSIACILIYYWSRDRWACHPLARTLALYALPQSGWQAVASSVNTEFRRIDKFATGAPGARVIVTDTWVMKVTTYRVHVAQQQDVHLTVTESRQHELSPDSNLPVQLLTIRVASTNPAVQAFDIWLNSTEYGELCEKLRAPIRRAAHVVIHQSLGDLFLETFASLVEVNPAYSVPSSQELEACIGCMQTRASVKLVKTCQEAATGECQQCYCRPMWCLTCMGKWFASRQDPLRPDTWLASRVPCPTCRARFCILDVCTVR
Excerpt: (§1) The following 96-well sample prep protocol was used for sample preparation.

UniProt O14544 = molecular target: T2, UniProt O14544 (Homo sapiens, UniProt O14544); conditions: for inhibition at 100 µM: read-out: percent_inhibition
T2 construct: 200 μL of lysate containing 5 mg/ml proteome was treated with 2 μL of 100× compound stock; endogenous in cells
T2 sequence (O14544 1-535): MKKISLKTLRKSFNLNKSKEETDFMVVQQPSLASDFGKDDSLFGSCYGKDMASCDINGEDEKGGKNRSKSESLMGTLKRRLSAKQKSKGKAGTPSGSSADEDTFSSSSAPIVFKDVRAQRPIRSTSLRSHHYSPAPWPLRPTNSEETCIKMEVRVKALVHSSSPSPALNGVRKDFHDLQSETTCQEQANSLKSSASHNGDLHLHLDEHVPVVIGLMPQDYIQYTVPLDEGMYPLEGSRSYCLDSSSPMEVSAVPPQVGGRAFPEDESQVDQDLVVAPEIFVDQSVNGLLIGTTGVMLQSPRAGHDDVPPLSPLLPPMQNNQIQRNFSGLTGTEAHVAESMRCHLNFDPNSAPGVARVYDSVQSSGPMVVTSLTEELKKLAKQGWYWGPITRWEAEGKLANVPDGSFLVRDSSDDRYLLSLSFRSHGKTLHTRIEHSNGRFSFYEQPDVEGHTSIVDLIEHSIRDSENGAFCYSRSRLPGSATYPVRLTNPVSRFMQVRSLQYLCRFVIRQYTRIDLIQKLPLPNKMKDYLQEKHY
Excerpt: as §1

UniProt O60260 = molecular target: T3, UniProt O60260 (Homo sapiens, UniProt O60260)
T3 construct: 200 μL of lysate containing 5 mg/ml proteome was treated with 2 μL of 100× compound stock; endogenous in cells
T3 sequence (O60260 1-465): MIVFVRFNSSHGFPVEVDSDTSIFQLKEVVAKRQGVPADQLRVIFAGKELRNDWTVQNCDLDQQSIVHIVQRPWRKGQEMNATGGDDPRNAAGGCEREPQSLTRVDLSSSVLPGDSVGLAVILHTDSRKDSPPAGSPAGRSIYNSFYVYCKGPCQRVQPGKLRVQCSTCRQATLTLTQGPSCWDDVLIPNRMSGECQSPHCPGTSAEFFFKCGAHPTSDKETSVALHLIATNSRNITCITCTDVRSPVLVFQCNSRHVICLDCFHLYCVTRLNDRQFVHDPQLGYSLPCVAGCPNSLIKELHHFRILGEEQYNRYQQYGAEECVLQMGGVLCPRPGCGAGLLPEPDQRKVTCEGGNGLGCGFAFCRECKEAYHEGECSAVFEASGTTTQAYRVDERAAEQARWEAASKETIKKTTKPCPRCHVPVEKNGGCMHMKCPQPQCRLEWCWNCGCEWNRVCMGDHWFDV
Excerpt: as §1

UniProt Q13064 = molecular target: T4, UniProt Q13064 (Homo sapiens, UniProt Q13064)
T4 construct: Cells were resuspended in cold PBS on ice and sonicated with a probe sonicator to achieve lysis; endogenous in cells
T4 sequence (Q13064 1-507): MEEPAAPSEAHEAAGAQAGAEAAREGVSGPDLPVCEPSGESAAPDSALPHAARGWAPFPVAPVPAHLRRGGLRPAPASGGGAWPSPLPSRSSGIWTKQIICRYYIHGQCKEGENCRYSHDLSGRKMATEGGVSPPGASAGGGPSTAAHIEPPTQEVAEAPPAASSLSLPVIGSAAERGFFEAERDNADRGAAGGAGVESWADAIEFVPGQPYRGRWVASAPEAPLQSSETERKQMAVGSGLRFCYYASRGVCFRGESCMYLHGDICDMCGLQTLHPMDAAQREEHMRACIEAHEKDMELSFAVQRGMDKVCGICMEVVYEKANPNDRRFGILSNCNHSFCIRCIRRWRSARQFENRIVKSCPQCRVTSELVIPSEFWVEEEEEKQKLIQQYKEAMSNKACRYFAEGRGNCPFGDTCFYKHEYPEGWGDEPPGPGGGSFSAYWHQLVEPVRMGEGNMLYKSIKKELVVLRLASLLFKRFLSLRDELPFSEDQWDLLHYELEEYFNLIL
Excerpt: as §1

UniProt Q5W0B1 = molecular target: T5, UniProt Q5W0B1 (Homo sapiens, UniProt Q5W0B1)
T5 construct: 200 μL of lysate containing 5 mg/ml proteome was treated with 2 μL of 100× compound stock; endogenous in cells
T5 sequence (Q5W0B1 1-726): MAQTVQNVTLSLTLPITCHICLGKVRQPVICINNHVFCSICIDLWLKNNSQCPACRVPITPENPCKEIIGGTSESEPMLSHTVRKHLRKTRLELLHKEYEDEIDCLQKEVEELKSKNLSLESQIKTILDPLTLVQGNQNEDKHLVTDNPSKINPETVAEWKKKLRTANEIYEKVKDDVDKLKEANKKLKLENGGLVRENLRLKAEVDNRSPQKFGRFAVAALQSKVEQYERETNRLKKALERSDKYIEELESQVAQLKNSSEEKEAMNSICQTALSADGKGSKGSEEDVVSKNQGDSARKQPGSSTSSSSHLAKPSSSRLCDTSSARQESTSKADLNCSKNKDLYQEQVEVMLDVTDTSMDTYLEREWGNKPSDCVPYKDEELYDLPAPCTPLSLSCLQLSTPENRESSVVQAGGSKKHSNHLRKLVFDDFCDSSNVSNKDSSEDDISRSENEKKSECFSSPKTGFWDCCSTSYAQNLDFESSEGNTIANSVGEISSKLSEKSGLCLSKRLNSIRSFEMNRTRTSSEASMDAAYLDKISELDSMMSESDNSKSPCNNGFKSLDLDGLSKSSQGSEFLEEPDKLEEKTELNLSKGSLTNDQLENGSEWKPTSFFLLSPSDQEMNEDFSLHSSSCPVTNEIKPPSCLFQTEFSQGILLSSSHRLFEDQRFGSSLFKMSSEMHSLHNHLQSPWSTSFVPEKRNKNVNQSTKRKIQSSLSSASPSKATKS
Excerpt: as §1

[1] = 500 uM, read-out: percent_inhibition
[2] = 500 uM, read-out: percent inhibition

| inhibition at 500 µM (UniProt O60260; read-out: KB05_500 uM_percent_inhibition) [%] | Compound | inhibition at 100 µM (UniProt A0AVI4; read-out: percent_inhibition) [%] | inhibition at 500 µM (UniProt A0AVI4; [1]) [%] | inhibition at 100 µM (UniProt O14544) [%] | inhibition at 500 µM (UniProt O60260; read-out: KB02_500 uM_percent_inhibition) [%] | inhibition at 100 µM (UniProt Q13064; 100 uM, read-out: percent inhibition) [%] | inhibition at 500 µM (UniProt Q13064; [2]) [%] | inhibition at 100 µM (UniProt Q5W0B1; 100 uM, read-out: percent_inhibition) [%] | inhibition at 500 µM (UniProt Q5W0B1; [1]) [%] | percent_inhibition (UniProt A0AVI4; 500 uM) [%] | percent_inhibition (UniProt O14544; 100 uM) [%] | KB03_500 uM_percent_inhibition (UniProt O60260; 500 uM) [%] | percent inhibition (UniProt Q13064; 500 uM) [%] | percent_inhibition (UniProt Q5W0B1; 500 uM) [%] |
| --- | --- | --- | --- | --- | --- | --- | --- | --- | --- | --- | --- | --- | --- | --- |
|  | COc1ccc2c(c1)CCCN2C(=O)CCl [KB02] | 14 | 44 | 35 | 92 | 2 | 37 | 17 | 54 |  |  |  |  |  |
| 93 | C=CC(=O)N(c1ccccc1)c1ccc(Br)cc1 [KB05] | 15 |  | 59 |  |  | 23 |  | 48 |  |  |  |  |  |
|  | O=C(CCl)Nc1cc(C(F)(F)F)cc(C(F)(F)F)c1 [KBO3] |  |  |  |  |  |  |  |  | 58 | 83 | 91 | 16 | 28 |
